How the values were obtained:
Assay in all cases: relative viability (nuclei count vs DMSO), 5 days (fraction); higher = more cells survive
Selisistat + Bortezomib = compound: C1CC(C2=C(C1)C3=C(N2)C=CC(=C3)Cl)C(=O)N [Selisistat] + CC(C)C[C@H](NC(=O)[C@H](Cc1ccccc1)NC(=O)c1cnccn1)B(O)O [Bortezomib] (partner 0.002 µM)
Outline: (§1)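 Lung cancer cell lines, seeded in 1536-well plates, were treated the following day by pin tool with a single drug or with five library-drug doses (not always all listed) in √10 steps on top of a fixed anchor-drug dose. Cells were fixed and nuclei stained in one step after 5 days, and nuclei were counted. Relative viability is the nuclei count for treated wells divided by that for vehicle wells, reported as medians of duplicate plates.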

Selisistat + Lapatinib = compound: C1CC(C2=C(C1)C3=C(N2)C=CC(=C3)Cl)C(=O)N [Selisistat] + CS(=O)(=O)CCNCc1ccc(-c2ccc3ncnc(Nc4ccc(OCc5cccc(F)c5)c(Cl)c4)c3c2)o1 [Lapatinib] (partner 2 µM)
Outline: as §1

Selisistat + Tozasertib = compound: C1CC(C2=C(C1)C3=C(N2)C=CC(=C3)Cl)C(=O)N [Selisistat] + Cc1cc(Nc2cc(N3CCN(C)CC3)nc(Sc3ccc(NC(=O)C4CC4)cc3)n2)n[nH]1 [Tozasertib] (partner 0.1 µM)
Outline: as §1

Selisistat + Olaparib = compound: C1CC(C2=C(C1)C3=C(N2)C=CC(=C3)Cl)C(=O)N [Selisistat] + O=C(c1cc(Cc2n[nH]c(=O)c3ccccc23)ccc1F)N1CCN(C(=O)C2CC2)CC1 [Olaparib] (partner 8 µM)
Outline: as §1

Row | Cell Line | relative viability (Selisistat + Bortezomib; first compound 0.4 µM) | relative viability (Selisistat + Bortezomib; first compound 1.265 µM) | relative viability (Selisistat + Bortezomib; first compound 12.65 µM) | relative viability (Selisistat + Bortezomib; first compound 40 µM) | relative viability (Selisistat + Lapatinib; first compound 0.4 µM) | relative viability (Selisistat + Lapatinib; first compound 1.265 µM) | relative viability (Selisistat + Lapatinib; first compound 12.65 µM) | relative viability (Selisistat + Lapatinib; first compound 40 µM) | relative viability (Selisistat + Tozasertib; first compound 0.4 µM) | relative viability (Selisistat + Tozasertib; first compound 1.265 µM) | relative viability (Selisistat + Tozasertib; first compound 4 µM) | relative viability (Selisistat + Tozasertib; first compound 12.65 µM) | relative viability (Selisistat + Tozasertib; first compound 40 µM) | relative viability (Selisistat + Olaparib; first compound 0.4 µM) | relative viability (Selisistat + Olaparib; first compound 1.265 µM) | relative viability (Selisistat + Olaparib; first compound 4 µM) | relative viability (Selisistat + Olaparib; first compound 12.65 µM) | relative viability (Selisistat + Olaparib; first compound 40 µM) | relative viability (Selisistat + Bortezomib; first compound 4 µM) | relative viability (Selisistat + Lapatinib; first compound 4 µM)
1 | CAL-12T | 0.992 | 1.12 | 0.768 | 0.983 | 0.628 | 0.704 | 0.627 | 0.646 | 0.306 | 0.239 | 0.328 | 0.27 | 0.255 | 0.765 | 0.675 | 0.689 | 0.782 | 0.769 | – | –
2 | RERF-LC-KJ | 1.18 | 1.02 | 1 | 1.05 | 0.857 | 0.854 | 0.811 | 0.831 | 0.662 | 0.46 | 0.519 | 0.403 | 0.371 | 0.962 | 0.916 | 0.844 | 0.828 | 0.839 | 0.974 | 0.793
3 | NCI-H1650 | 0.281 | 0.205 | 0.202 | 0.22 | 0.918 | 0.74 | 0.685 | 0.693 | 0.355 | 0.301 | 0.404 | 0.34 | 0.334 | 0.933 | 0.863 | 0.86 | 0.852 | 0.702 | 0.222 | 0.579
4 | BEN | 0.888 | 0.984 | 0.73 | 0.609 | 0.677 | 0.683 | 0.603 | 0.548 | 0.55 | 0.406 | 0.385 | 0.505 | 0.471 | 1.08 | 1.03 | 1.06 | 1.06 | 1.04 | 0.492 | 0.471
5 | EMC-BAC-2 | 1.08 | 1.05 | 1.05 | 1.04 | 0.869 | 0.875 | 0.894 | 0.848 | 0.302 | 0.286 | 0.404 | 0.281 | 0.257 | 0.577 | 0.504 | 0.676 | 0.371 | 0.405 | 1.01 | 0.848
6 | LU99A | 1.17 | 1.15 | 1.16 | 1.11 | 1.06 | 0.913 | 0.914 | 0.962 | 0.298 | 0.249 | 0.319 | 0.313 | 0.281 | 0.24 | 0.248 | 0.307 | 0.255 | 0.251 | 1.33 | 1.06
7 | ABC-1 | 0.317 | 0.327 | 0.383 | 0.267 | 1.03 | 1.12 | 0.924 | 1.24 | 0.184 | 0.179 | 0.17 | 0.176 | 0.149 | 0.715 | 0.686 | – | 0.876 | 0.69 | 0.312 | 1.19
8 | NCI-H2347 | 0.772 | 1.11 | 0.907 | 0.831 | 1.06 | 0.943 | 0.882 | 0.983 | 0.606 | 0.733 | 0.427 | 0.617 | 0.583 | 0.719 | 0.622 | – | 0.605 | 0.621 | – | 0.482
9 | NCI-H1993 | 1.22 | 1.18 | 1.25 | 1.23 | 0.683 | 0.751 | 0.913 | 0.806 | 0.58 | 0.579 | 0.57 | 0.569 | 0.539 | 1.06 | 1.07 | – | 1.15 | 1.03 | – | –
10 | NCI-H322M | 1.36 | 1.25 | 1.42 | 1.39 | 0.595 | 0.562 | 0.623 | 0.561 | 0.552 | 0.475 | 0.455 | 0.469 | 0.495 | 0.857 | 0.83 | – | 0.845 | 0.868 | – | –
11 | NCI-H838 | 0.803 | 0.73 | 0.878 | 1.01 | 1.09 | 0.965 | 0.966 | 0.958 | 0.238 | 0.278 | 0.245 | 0.26 | 0.249 | 0.833 | 0.782 | 0.842 | 0.75 | 0.733 | 0.603 | 0.627
12 | HARA | 1.12 | 1.19 | 1.15 | 1.06 | 0.726 | 0.691 | 0.778 | 0.904 | 0.137 | 0.12 | 0.119 | 0.154 | 0.1 | 0.695 | 0.651 | – | 0.785 | 0.85 | 1.14 | 0.71
13 | NCI-H2087 | 0.738 | 0.709 | 0.806 | 0.719 | 1 | 1.13 | 0.946 | 1.03 | 0.247 | 0.236 | – | 0.164 | 0.272 | 0.748 | 0.684 | – | 0.573 | 0.553 | 0.734 | 0.653
14 | NCI-H1437 | 0.575 | 0.451 | 0.431 | 0.515 | 0.801 | 0.758 | 0.71 | 0.776 | 0.426 | 0.398 | 0.339 | 0.369 | 0.369 | 0.599 | 0.615 | 0.618 | 0.565 | 0.544 | 0.378 | 0.341
15 | NCI-H650 | 0.832 | – | 0.636 | 1.08 | 1.09 | – | 0.941 | 1.11 | 0.783 | 0.674 | 0.717 | 0.622 | 0.66 | 0.51 | 0.379 | 0.496 | 0.382 | 0.3 | 0.868 | 0.916
16 | COR-L23 | 0.981 | 1.02 | 0.829 | 0.863 | 0.969 | 1.03 | 0.935 | 0.799 | 0.243 | 0.241 | 0.218 | 0.171 | 0.183 | 0.409 | 0.331 | 0.406 | 0.367 | 0.335 | 1.09 | 0.959
17 | COR-L 105 | 0.772 | 0.868 | 0.725 | 0.72 | 0.298 | 0.338 | 0.378 | 0.31 | 0.344 | 0.344 | – | 0.315 | 0.336 | 0.703 | 0.67 | 0.815 | 0.659 | 0.576 | 0.493 | 0.371
